The subject of experiment [1] is anesthetized rats. Description: Diuresis in anesthetized rats. Format: in vivo, rat. The following applies: infused at 5 mcg/min via femoral vein; versus baseline; FIG. 3. The procedure:
In one set of examples, cannulae were placed in the left and right ureters and femoral vein of anesthetized rats and urine was collected from the ureters. Analog peptides were administered via the femoral vein. Prior to infusing the analog peptides, saline was infused for 30 minutes, urine was collected for 6 five-minute baseline periods and urine volume was determined gravimetrically. Following these baseline collection periods, various analog peptides were infused for 30 or 60 minutes and urine volume was measured in five-minute periods during infusion and for 60 minutes following infusion (at which time rats were returned to saline). Data was examined by averaging urine flow rates for six five-minute baseline control periods immediately preceding infusion, and comparing values during and after administration of peptides with the "baseline" control values. Responses to peptides are thus evaluated and plotted as the percent of baseline control responses. Specific examples are shown in FIGS. 3A-H. The error bars at the beginning of the graphs represent baseline values +standard deviations. Responses to peptides that are substantially above baseline ±SD can thus be interpreted as being statistically significant increases.

Experiment [2] concerns anesthetized rats. Description: Blood pressure responses in anesthetized rats. Format: in vivo, rat. Particulars: infusion 733 p mol/kg/min.
In experiment [3] the target is T1, specific ANP receptor sites on BASM or BAE cells (Bos taurus, UniProt P10730).
T1 construct: specific receptor sites on BASM or BAE cells; endogenous in cells; host or cells: cultured BASM and BAE cells
T1 sequence (P10730 42-537): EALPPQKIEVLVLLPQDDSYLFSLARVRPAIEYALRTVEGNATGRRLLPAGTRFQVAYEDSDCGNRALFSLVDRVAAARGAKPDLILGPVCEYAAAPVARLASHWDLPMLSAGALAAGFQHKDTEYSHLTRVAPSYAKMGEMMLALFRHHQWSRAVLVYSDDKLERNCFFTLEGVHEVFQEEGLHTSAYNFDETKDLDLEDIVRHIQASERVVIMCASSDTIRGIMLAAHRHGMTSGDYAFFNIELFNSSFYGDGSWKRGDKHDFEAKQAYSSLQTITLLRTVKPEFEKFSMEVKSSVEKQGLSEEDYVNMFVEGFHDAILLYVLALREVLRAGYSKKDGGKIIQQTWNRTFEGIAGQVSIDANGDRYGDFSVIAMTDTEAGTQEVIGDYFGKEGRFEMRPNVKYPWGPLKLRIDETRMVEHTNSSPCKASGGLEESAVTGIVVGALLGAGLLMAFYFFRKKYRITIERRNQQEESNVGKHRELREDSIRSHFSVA
Description: Competitive displacement receptor binding of (125I)-rANP(126-150) on cultured cells. Also noted: species or system bovine. From the text:
Analogous "competitive displacement" receptor binding assays are considered commonplace in the art for examining specific ligand-receptor interactions.
Assuming these ANP analogs act at one or more ANP receptor sites, then increased receptor affinity should reflect increased biological potency.

The subject of experiment [4] is pentobarbital-anesthetized dogs. Briefly: Diuresis and natriuresis in anesthetized dogs. Format: in vivo, dog. The procedure:
In these examples, cannulae were placed in the left and right ureters and femoral vein of anesthetized dogs and urine was collected from the ureters. Analog peptides were administered via the femoral vein. Prior to infusing analog peptides, saline was infused for 30 minutes and urine was then collected for three ten-minute collection periods. Urine volume was determined gravimetrically and urine sodium was determined photometrically.
Following these three baseline collection periods, the selected analog peptides were infused for 60 minutes and urinary flow was measured for an additional 60 minutes following infusion. During infusion (60 minutes) and recovery (60 minutes), ten-minute collection periods were obtained. Control animals which received only saline were studied in parallel.
Data were examined by comparing urine flow rates for dogs infused with peptides AP101 (3 mcg/kg/min), AP306 (3 mcg/kg/min), AP324 (3 mcg/kg/min),or AP314 (1 mcg/kg/min) against control animals infused with saline.

Entries after “also recorded” stand apart in the source; their conditions may differ. Where a SMILES comes first, the peptide text is derived from it. Bridges are numbered along the chain shown (N, C = ends). Where no end group is shown, it is not given here.

These results are taken from patent publication US5047397A, “Linear analogs of atrial natriuretic peptides” (California Biotechnology Inc., priority 1988, dated 1991).

Regarding `CC[C@H](C)[C@@H]1NC(=O)[C@H](CCCNC(=N)N)NC(=O)[C@H](CC(=O)O)NC(=O)[C@H]([C@@H](C)CC)NC(=O)[C@H](CCCNC(=N)N)NC(=O)CNC(=O)CNC(=O)[C@H](Cc2ccccc2)NC(=O)[C@@H](NC(=O)[C@H](CO)NC(=O)[C@H](CO)NC(=O)[C@@H](N)CCCNC(=N)N)CSSC[C@@H](C(=O)N[C@@H](CC(N)=O)C(=O)N[C@@H](CO)C(=O)N[C@@H](Cc2ccccc2)C(=O)N[C@@H](CCCNC(=N)N)C(=O)N[C@@H](Cc2ccc(O)cc2)C(=O)O)NC(=O)[C@H](C)NC(=O)CNC1=O` [AP20, R--S--S--C--F--G--G--R--I--D--R--I--G--A--C--N--S--F--R--Y] (H-RSSCFGGRIDRIGACNSFRY-OH; disulfide 4-15), in the experiment on anesthetized rats [1], the “urine flow rate (urine volume), diuretic response” value is reported as “significantly increased”. Besides, in the experiment with anesthetized rats [2], the “Blood Pressure” value is recorded as -34 ± 3. The Ki in experiment [3] (Table 2A, unit not given, in nM) is reported as 7.50.

For the compound “AFGGRIDRIGA-NH2 [AP101, A--F--G--G--R--I--D--R--I--G--A--NH2]”, in the experiment on anesthetized rats [1], the “urine flow rate (urine volume), diuretic response” value is given as “induce diuresis; also recorded: significantly increased”. Further, in experiment [4] (3 mcg/kg/min infused 60 min, *P<0.05, control 0.61), the “Peak Urine Flow Rate V” value came out at 1.77 mL/min. For the same compound, the “urine flow rate and urinary sodium excretion (diuresis, natriuresis), in words” value in experiment [4] (3 mcg/kg/minute infusion) was “cause diuresis; also recorded: significantly increased”. Also, the “Ki(app)” value in experiment [3] (concentration of unlabeled peptide displacing 50% of maximal binding of 0.5 nM (125I)-rANP(126-150), BASM or BAE cells) stood at 2.63 nM. Further, the “prevention of (125I)-rANP(126-150) binding to BASM cell-associated receptors (FIG. 2)” value in experiment [3] (increasing concentrations of unlabeled peptide, BASM cells) is “effectively prevent”.
